Read-outs that look alike come from different tables or passages of the source. Starred links: 1 amine or outer side, 2 acyl side, 3 side chain; linkers in the order of their positions; H or OH if unused. Non-standard residues stand in square brackets, D forms with d. Residues, ends and D or L forms follow the SMILES beside them. No end group written: not given here. ξ: configuration not given here. X1 = O=C(C(Cc1ccc(O)cc1)N=CC(Cc1ccc(O)cc1)N[*:1])[*:2]; Pro(4S-Me) = C[C@@H]1CN[C@H](C(=O)O)C1; d(hSer) = N[C@H](CCO)C(=O)O; ξY = NC(Cc1ccc(O)cc1)C(=O)O

Data on seven compounds can be found in EP2446893A1 (priority 2010, dated 2012).

In series [1] the test system is primary rat hepatocytes. The format is cell-based. The following applies: hepatocytes incubated for 96 hours. As to the method: (§1) Rat hepatocytes were isolated by in vitro collagenase perfusion, Mellgren G, et al., Journal of Cellular Physiology 1995;163:232-240. Experimental conditions were as described in Herfindal L, et al., J Med Chem 2009;52:5758-5762, except for assay of NaN3 and general cytotoxicity, where the hepatocytes were seeded in collage-coated 24-well culture dishes. Microinjection of hepatocytes was as described previously, Fladmark KE, et al., Hepatology 1997;25:847-855. The hepatocyte death (by apoptosis or necrosis) was evaluated by microscopy. Long-term hepatocyte viability was assessed also by the WST-1 colorimetric assay of mitochondrial dehydrogenase activity (Roche Applied Sciences, Mannheim, Germany).

Another series relates to HEK 293 cells. In words: toxicity for HEK 293 cells with and without OATP1B1/B3 overexpression. The following applies: not shown.
The target in series [2] is T1, OATP1B1 (Homo sapiens, UniProt Q9Y6L6).
Target sequence in this assay (Q9Y6L6 whole entry): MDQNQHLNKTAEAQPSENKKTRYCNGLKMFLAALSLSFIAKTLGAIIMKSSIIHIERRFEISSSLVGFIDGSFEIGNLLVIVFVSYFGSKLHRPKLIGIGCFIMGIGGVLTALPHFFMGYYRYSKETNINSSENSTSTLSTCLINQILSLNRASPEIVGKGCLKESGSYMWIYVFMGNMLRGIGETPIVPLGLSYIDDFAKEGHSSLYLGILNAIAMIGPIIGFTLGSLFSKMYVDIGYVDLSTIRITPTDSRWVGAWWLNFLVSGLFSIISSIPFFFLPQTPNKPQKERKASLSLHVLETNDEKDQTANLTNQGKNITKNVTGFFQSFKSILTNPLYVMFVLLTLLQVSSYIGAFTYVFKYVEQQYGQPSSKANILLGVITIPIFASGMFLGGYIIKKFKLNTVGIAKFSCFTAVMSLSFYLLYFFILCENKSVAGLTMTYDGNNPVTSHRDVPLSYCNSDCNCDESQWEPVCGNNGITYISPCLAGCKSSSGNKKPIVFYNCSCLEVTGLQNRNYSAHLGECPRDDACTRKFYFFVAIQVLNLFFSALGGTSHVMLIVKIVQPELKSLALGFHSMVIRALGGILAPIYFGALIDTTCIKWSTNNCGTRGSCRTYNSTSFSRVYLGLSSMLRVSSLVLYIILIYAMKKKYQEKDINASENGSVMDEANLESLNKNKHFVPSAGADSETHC
For series [3], the system named is primary rat hepatocytes.
Series [4] in a line: stability on storage and in solution. The format is physicochemical.
Series [5] concerns the target T2, Oatp1b2 (Rattus norvegicus, UniProt Q9QZX8).
T2 sequence (Q9QZX8 1-687): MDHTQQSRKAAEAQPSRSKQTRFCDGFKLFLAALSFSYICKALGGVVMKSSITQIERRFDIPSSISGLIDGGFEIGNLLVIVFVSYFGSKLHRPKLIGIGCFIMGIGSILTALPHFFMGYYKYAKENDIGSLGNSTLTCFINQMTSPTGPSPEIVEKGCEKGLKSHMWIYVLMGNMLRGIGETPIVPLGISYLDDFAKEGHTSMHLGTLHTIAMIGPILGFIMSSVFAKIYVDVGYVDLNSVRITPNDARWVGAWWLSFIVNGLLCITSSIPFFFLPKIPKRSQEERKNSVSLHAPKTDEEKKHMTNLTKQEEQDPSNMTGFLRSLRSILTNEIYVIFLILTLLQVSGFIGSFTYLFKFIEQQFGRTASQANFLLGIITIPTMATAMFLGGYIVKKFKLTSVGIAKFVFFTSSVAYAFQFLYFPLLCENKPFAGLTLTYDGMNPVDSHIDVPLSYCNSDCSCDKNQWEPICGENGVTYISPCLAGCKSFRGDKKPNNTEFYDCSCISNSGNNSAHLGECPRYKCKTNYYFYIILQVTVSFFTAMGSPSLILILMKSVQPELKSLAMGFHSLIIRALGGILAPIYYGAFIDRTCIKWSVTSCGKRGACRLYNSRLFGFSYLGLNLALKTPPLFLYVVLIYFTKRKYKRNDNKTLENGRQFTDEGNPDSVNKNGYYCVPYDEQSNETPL

Series [6] relates to primary rat hepatocytes. Nature of the series: hepatocyte toxicity / long-term viability (microscopy, WST-1). The format is cell-based. To be noted: for inherent toxicity (morphology, growth, mitochondrial dehydrogenase activity of hepatocytes): hepatocytes incubated for 96 hours; for toxicity for primary rat hepatocytes: not shown. As to the method:
as §1
(Formazan colour is commonly taken as a measure of viable cells.)

Series [7] in a line: solubility in physiological saline. Format: physicochemical.
The test system of another series is CaM-KII. Format: biochemical.
Series [8] concerns the target T3, OATP1B3 (Homo sapiens, UniProt Q9NPD5).
The target in series [9] is T2, Oatp1b2. The source holds these as a separate data set.
In series [10] the target is T1, OATP1B1. The source holds these as a separate data set.
Target sequence in this assay (Q9Y6L6 whole entry): as the sequence (Q9Y6L6 whole entry) above
The target in series [11] is T1, OATP1B1. The format is cell-based.
Target sequence in this assay (Q9Y6L6 whole entry, looked up): as the sequence (Q9Y6L6 whole entry) above
In series [12] the target is T3, OATP1B3. The following applies: Gui et al. 2010; cited from earlier work.
In series [13] the target is rat hepatocyte channel Oatp1b2 (rat) (UniProt Q9QZX8). Nature of the series: cell-based or functional assay.

T3 sequence (Q9NPD5 whole entry): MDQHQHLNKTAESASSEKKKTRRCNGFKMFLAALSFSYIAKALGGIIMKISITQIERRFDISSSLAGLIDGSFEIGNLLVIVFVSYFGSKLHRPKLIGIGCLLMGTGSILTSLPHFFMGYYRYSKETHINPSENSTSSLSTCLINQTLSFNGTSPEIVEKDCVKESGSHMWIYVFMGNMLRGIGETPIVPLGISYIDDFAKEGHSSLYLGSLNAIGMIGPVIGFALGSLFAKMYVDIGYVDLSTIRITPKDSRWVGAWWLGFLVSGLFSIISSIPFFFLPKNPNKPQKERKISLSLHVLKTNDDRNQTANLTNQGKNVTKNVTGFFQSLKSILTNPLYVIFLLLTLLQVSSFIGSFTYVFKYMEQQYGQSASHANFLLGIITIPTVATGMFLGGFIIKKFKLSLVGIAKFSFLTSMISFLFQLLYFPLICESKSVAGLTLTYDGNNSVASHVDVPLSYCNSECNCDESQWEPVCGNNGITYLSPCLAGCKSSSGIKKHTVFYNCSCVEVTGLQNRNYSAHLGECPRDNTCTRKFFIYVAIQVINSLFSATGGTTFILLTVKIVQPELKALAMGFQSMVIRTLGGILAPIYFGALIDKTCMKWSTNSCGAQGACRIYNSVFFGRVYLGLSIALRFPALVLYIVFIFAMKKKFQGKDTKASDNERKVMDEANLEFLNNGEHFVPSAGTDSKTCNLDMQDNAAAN

For `O=C1OC(c2ccc(O)c(S(=O)(=O)O)c2)(c2ccc(O)c(S(=O)(=O)O)c2)c2c(Br)c(Br)c(Br)c(Br)c21` [BSP, bromosulfophthalein], the “inherent toxicity (morphology, growth, mitochondrial dehydrogenase activity of hepatocytes)” value in the series with primary rat hepatocytes [1] is listed as “highly toxic”.
As a reminder, the Ki is a dissociation constant, usually derived from enzyme kinetics or from competition with a known ligand. A high value points to a looser hold on the target. For the compound `CC(C)[C@@H]1NC(=O)[C@@H]2CCCN2C(=O)[C@@H](CCO)NC(=O)C(Cc2ccc(O)cc2)NC(=O)C(Cc2ccc(O)cc2)N=CC(Cc2ccc(O)cc2)NC(=O)[C@@H]2C[C@H](C)CN2C1=O` (stereo partly drawn) [Ncp-M1] (cyclo([X1][ξY][d(hSer)]PV[Pro(4S-Me)])), in the series on HEK 293 cells, the “toxicity for HEK 293 cells” value is on record as “non-toxic”. For the same compound, the values for the Ki at OATP1B1 [2], on Oatp1b2 [5] and at OATP1B3 [8] were 1500 nM, 350 nM and 0.01063 nM, respectively. Further, the “hepatocyte uptake of microcystin and nodularin” value in the series on primary rat hepatocytes [3] was “blocks”. The stability in solution entry in series [4] (in solution, in particular acidic solutions) was “degrade in solution”. Besides, in series [4] (stored at -70°C), the stability on storage result is recorded as “non-stable”. The “inherent toxicity (morphology, growth, mitochondrial dehydrogenase activity of hepatocytes)” value with primary rat hepatocytes [6] is reported as “no apparent inherent toxicity”. For the same compound, the “toxicity for primary rat hepatocytes” value in the series with primary rat hepatocytes [6] is reported as “non-toxic”. Besides, the “solubility in physiological saline” value in series [7] is reported as “high solubility”. Moreover, in the series with CaM-KII, the “interference with intracellular steps of microcystin action (protein phosphatase inhibition, CaM-KII activation, ROS production, actin rearrangement)” value is on record as “did not interfere”.
As for `CC(C)[C@@H]1NC(=O)[C@@H]2CCCN2C(=O)[C@H](CO)NC(=O)[C@H](Cc2ccc(O)cc2)NC(=O)[C@H](Cc2ccc(O)cc2)NC(=O)[C@H](Cc2ccc(O)cc2)NC(=O)[C@@H]2CCCN2C1=O` [cyclic peptide of Seq. ID. No. 1, Tyr1-Tyr2-Ser-Pro-Val-Pro-Tyr7] (cyclo(PVPYYYS)), the “toxicity for HEK 293 cells” value in the series with HEK 293 cells is listed as “non-toxic”. On Oatp1b2 [9], the “inhibition of nodularin uptake / nodularin-induced apoptosis” value is given as “inhibited completely” and the “potency compared with another peptide” value was “lower potency than Ncp-M1”. Moreover, at OATP1B1 [10], the “inhibition of nodularin uptake / nodularin-induced apoptosis” value is on record as “inhibited completely” and the “potency compared with another peptide” value is reported as “lower potency than Ncp-M1”. Further, in the series with primary rat hepatocytes [6], the “inherent toxicity (morphology, growth, mitochondrial dehydrogenase activity of hepatocytes)” value is recorded as “no apparent inherent toxicity” and the “toxicity for primary rat hepatocytes” value is listed as “non-toxic”. Further, the “solubility in physiological saline” value in [7] was “high solubility”. Also, at OATP1B3 [8], the “inhibition of nodularin uptake / nodularin-induced apoptosis” value was “inhibited completely”, the “potency compared with another peptide” value is listed as “lower potency than Ncp-M1” and the “preference for inhibition of OATP1B3” value was “even higher OATP1 B3 preference”.
Usually Km stands for the substrate concentration at which the rate is half of its maximum. Turning to `C/C=C1/C(=O)N[C@@H](C(=O)O)[C@H](C)C(=O)N[C@@H](CCCNC(=N)N)C(=O)N[C@@H](/C=C/C(C)=C/[C@H](C)[C@H](Cc2ccccc2)OC)[C@H](C)C(=O)N[C@@H](C(=O)O)CCC(=O)N1C` [nodularin], the Km at OATP1B1 [11] stood at 32 nM.
Turning to `C[C@H]1[C@H](C)CC[C@]2(C(=O)O)CC[C@]3(C)C(=CC[C@@H]4[C@@]5(C)CC[C@H](O)C(C)(C)[C@@H]5CC[C@]43C)[C@H]12` [ursolic acid], on OATP1B3 [12], the “selectivity for OATP1B3 compared to OATP1B1” value was “ten times”.
On to “YYSPVPY [linear version of the same peptide, Tyr-Tyr-Ser-Pro-Val-Pro-Tyr]”, for which the “potency compared with another peptide” value on OATP1B3 [8] is recorded as “considerably less potent”.
As for microcystin-LR (peptide), in [13], the apparent KM for uptake, deduced from apoptosis of primary rat hepatocytes turned out to be 0.00027 nM.
